Laboratory results taken from article PMC9032233, “2-{5-[(Z,2Z)-2-Chloro-3-(4-nitrophenyl)-2-propenylidene]-4-oxo-2-thioxothiazolidin-3-yl}-3-methylbutanoic Acid as a Potential Anti-Breast Cancer Molecule” (International Journal of Molecular Sciences, 2022).

Columns and labels:
topoisomerase II = assay: Topoisomerase II concentration in MDA-MB-231 cell lysates (ELISA); type: cell-based, human; conditions: 24 h, control 2.700 ng/mL
Procedure: (§1) High sensitivity assay kits (EIAab Science Co., Ltd., Wuhan, China; Abcam plc., Cambridge, United Kingdom; Cloud-Clone Corp., Katy, TX, USA) were used to determine the concentrations of selected proteins in cell lysates after 24 h incubation with novel compound and reference drug in 1 µM and 5 µM concentrations. In brief, after trypsinization, cells were washed thrice with cold PBS and centrifuged at 1000× g for 5 min at 4 °C. Then, cells (1.5 × 10^6) were suspended in lysis buffer for whole-cell lysates. After the second centrifugation, cellular supernatants were frozen immediately at −70 °C. Untreated cancer cells were taken as a control.
(§2) The microtiter plates provided in the kits were pre-coated with an antibody specific to the analyzed antigen. The tests were carried out according to the manufacturer’s protocols.

topoisomerase IIα [1] = assay: Flow cytometric analysis of anti-topoisomerase IIα antibody, MCF-7; type: cell-based, human; conditions: 24 h
Procedure: (§3) To confirm the ELISA results, flow cytometric analysis of Top II activity using an anti-topoisomerase IIα antibody conjugated with phycoerythrin (PE) was performed. The Les-3331 and etoposide were used at 1 µM and 5 µM concentrations. Cancer cells were incubated for 24 h with tested compounds and the assay was carried out in accordance with the manufacturer’s protocol. Briefly, cells were centrifuged and resuspended in 4% formaldehyde. Then, cells were incubated at RT for 15 min and subsequently washed with excess PBS and centrifuged. Thereafter, ice-cold 90% methanol was added to the cells and they were incubated for 1 h in an ice bath. Next, cells were washed with excess PBS and centrifuged again. In the meantime, the primary antibody was diluted (1:100) in PBS. Then, cells were resuspended in the prepared primary antibody (100 µL) and incubated at RT, protected from light, for 1 h. Finally, cells were washed and resuspended in PBS (300 µL). The prepared samples were measured immediately. Analysis of the obtained results was performed using a flow cytometer (BD FACSCanto II, Becton Dickinson Biosciences Systems, San Jose, CA, USA) and FACSDiva software (v6.1.3, BD Biosciences Systems, San Jose, CA, USA). The equipment was calibrated with BD Cytometer Setup and Tracking Beads (BD Biosciences, San Diego, CA, USA).

MDA-MB-231 cells = assay: Annexin V binding assay (flow cytometry), MDA-MB-231; type: cell-based, human; conditions: 24 h
Procedure: The effect of Les-3331 and reference drug on the induction of apoptosis process in human breast cancer cell lines was evaluated using a flow cytometer (BD FACSCanto II, Becton Dickinson Biosciences Systems, San Jose, CA, USA) and Annexin V binding Apoptosis Detection Kit II (BD Biosciences, San Diego, CA, USA). The Les-3331 and reference drug were used in 1 µM and 5 µM concentrations. The test was carried out after 24 h incubation with the tested compounds according to the manufacturer’s protocol and was previously described by our research group. Analysis of the obtained results was performed using FACSDiva software (version 6.1.3, BD Biosciences Systems, San Jose, CA, USA). The equipment was calibrated with BD Cytometer Setup and Tracking Beads (BD Biosciences, San Diego, CA, USA).

caspase-8 = assay: Caspase-8 concentration in MDA-MB-231 cell lysates (ELISA); type: cell-based, human; conditions: 24 h, control 0.828 ng/mL
Procedure: as §1, §2

topoisomerase IIα [2] = assay: Flow cytometric analysis of anti-topoisomerase IIα antibody, MDA-MB-231; type: cell-based, human; conditions: 24 h
Procedure: as §3

[3] = test system: MCF-7 human breast cancer cells; assay: MTT cell viability assay, MCF-7; type: cell-based; conditions: MCF7, MCF-7, MTT, 24 h incubation
Procedure: (§4) Cell culture MCF-7, MDA-MB-231 human breast cancer cells, and fibroblasts skin cells were purchased from the ATCC—American Type Culture Collection. All cell lines were maintained in DMEM (Corning, Kennebunk, ME, USA). The medium was supplemented with 10% fetal bovine serum—FBS (Eurx, Gdansk, Poland) and 1% antimicrobial substances: penicillin–streptomycin (Corning, Kennebunk, ME, USA). The incubator asserted appropriate growth conditions required for these cell lines: 5% of CO2, at 37 °C, with the humidity between 90–95%. Cells were seeded in 100 mm round dishes. An amount of 0.05% trypsin containing 0.02% EDTA (Corning, Kennebunk, ME, USA) and phosphate-buffered saline (PBS) without calcium and magnesium (Corning, Kennebunk, ME, USA) was used to detach cells from a plate once 80–90% cell confluence was achieved. In the next step, cells were reseeded in six-well plates (density—5 × 10^5 of cells per well) in 1 mL of DMEM after a 24 h incubation used in the presented tests.
(§5) To examine the effect of Les-3331 on cell viability, the MTT assay was performed. […] The absorbance was measured using Spectrophotometer UV-VIS Helios Gamma (Unicam/ThermoFisher Scientific Inc., Waltham, MA, USA) at a wavelength of 570 nm. The obtained absorbance in untreated control cells was taken as 100%, while the survival of the cells incubated with tested compounds presented as a percentage of the control value.

Beclin-1 = Beclin-1 concentration in MDA-MB-231 cell lysates (ELISA); type: cell-based, human; conditions: 24 h, control 3.605 ng/mL
Procedure: as §1, with “after 24 h incubation with novel compound and reference drug in 1 µM and 5 µM concentrations.” left out
as §2

[4] = test system: MDA-MB-231 human breast cancer cells; assay: MTT cell viability assay, MDA-MB-231; type: cell-based; conditions: MDA-MB-231, MTT, 24 h incubation
Procedure: as §4, §5

caspase-9 = assay: Caspase-9 concentration in MCF-7 cell lysates (ELISA); type: cell-based, human; conditions: 24 h, control 120.913 ng/mL
Procedure: as §1, §2

human skin fibroblasts = assay: MTT cell viability assay, skin fibroblasts; type: cell-based; conditions: Skin fibroblast, 24 h incubation
Procedure: as §4, §5

| Structure (SMILES) | Top II concentration (topoisomerase II; MDA-MB-231, 1 µM) [ng/mL] | Top II concentration (topoisomerase II; MDA-MB-231, 5 µM) [ng/mL] | % of cells without anti-topoisomerase IIα antibody (topoisomerase IIα [1]; MCF-7, 1 µM) [%] | % of cells without anti-topoisomerase IIα antibody (topoisomerase IIα [1]; MCF-7, 5 µM) [%] | % of late and early apoptotic cells (MDA-MB-231 cells; MDA-MB-231, 1 µM) [%] | % of late and early apoptotic cells (MDA-MB-231 cells; MDA-MB-231, 5 µM) [%] | Casp-8 concentration (caspase-8; MDA-MB-231, 1 µM) [ng/mL] | Casp-8 concentration (caspase-8; MDA-MB-231, 5 µM) [ng/mL] | % of cells without anti-topoisomerase IIα antibody (topoisomerase IIα [2]; MDA-MB-231, 1 µM) [%] | % of cells without anti-topoisomerase IIα antibody (topoisomerase IIα [2]; MDA-MB-231, 5 µM) [%] | IC50 [3] [µM] | Beclin-1 concentration (Beclin-1; MDA-MB-231, 1 µM) [ng/mL] | Beclin-1 concentration (Beclin-1; MDA-MB-231, 5 µM) [ng/mL] | IC50 [4] [µM] | Casp-9 concentration (caspase-9; 1 µM) [ng/mL] | Casp-9 concentration (caspase-9; 5 µM) [ng/mL] | IC50 (human skin fibroblasts) [µM] |
| --- | --- | --- | --- | --- | --- | --- | --- | --- | --- | --- | --- | --- | --- | --- | --- | --- | --- |
| COc1cc([C@@H]2c3cc4c(cc3[C@@H](O[C@@H]3O[C@@H]5CO[C@@H](C)O[C@H]5[C@H](O)[C@H]3O)[C@H]3COC(=O)[C@H]23)OCO4)cc(OC)c1O [Etoposide, reference compound] | 2.175 | 2.003 | 8.6 | 11.8 | 4.7 | 7.2 | 0.836 | 0.857 | 7.5 | 9.1 | > 50 | 3.442 | 3.004 | > 50 | 154.960 | 158.900 |  |
| CC(C)C(C(=O)O)N1C(=O)/C(=C/C(Cl)=C/c2ccc([N+](=O)[O-])cc2)SC1=S (centres unmarked) [Les-3331, 2-{5-[(Z,2Z)-2-chloro-3-(4-nitrophenyl)-2-propenylidene]-4-oxo-2-thioxothiazolidin-3-yl}-3-methylbutanoic acid] | 2.508 | 1.436 | 34.1 | 49.2 | 5.1 | 18.1 | 1.012 | 1.067 | 5.4 | 30.9 | 5.02 | 3.007 |  | 15.2 | 150.187 | 168.243 | 28.5 |
